For 15 molecules, Kd and IC50 results are on record in patent publication US20260022118A1, “HETEROCYCLIC COMPOUNDS AS NRAS INHIBITORS” (Board of Regents, The University of Texas System, priority 2023, published 2026).

One assay addresses NRAS G12D C118S (Homo sapiens (Human), UniProt P01111, C118S/G12D). Briefly: NRas G12D Surface Plasmon Resonance (SPR) binding assay. To be noted: Avi-tagged biotinylated NRAS G12D C118S on streptavidin chip, 25° C., 1:1 kinetic or steady-state fit. The protocol: NRas G12D Surface Plasmon Resonance (SPR) Binding Assay
This Example illustrates that exemplary compounds and salts thereof described herein bind to NRAS G12D as measured by surface plasmon resonance (SPR).
Two liters of 1.03× running buffer (1.03×HBS-P+pH 7.4, containing 0.0103 M HEPES, 0.1545 M NaCl, 0.0515% v/v Surfactant P20 (Cytiva®, BR100671); 5.15 mM MgCl2 (Invitrogen, AM9530G); 0.515 mM TCEP, pH 8.0 (GoldBio®, TCEP25)) was prepared and filter sterilized using a 0.22 μm filter. A 1-L volumetric flask was filled partway with this buffer. A 30-mL volumetric flask was used to measure 30 mL of 100% DMSO (Sigma Aldrich®, 41639-100ML) which was added to the 1-L flask. The solution in the 1-L flask was brought up to 1 L with 1.03× buffer, resulting in a 1.0× assay running buffer containing 1.0×HBS-P+, 5 mM MgCl2, […], and 3% DMSO. Remaining 1.03× buffer was used for preparation of samples and immobilization running buffer.
Samples were prepared in a standard conical-bottomed 384-well microplate by adding 2 μL 10 mM DMSO cpd stock to each well, followed by 8 μL DMSO. A control compound was selected based off of its relatively “fast” kinetics that could be fitted by 1:1 kinetic fitting, as well as by steady-state fitting. Control wells for periodic injection to assess protein activity throughout the assay were also assembled, by diluting 10 mM compound 1:30 in DMSO, then adding 20 μL to the appropriate wells, such that the final concentration of compound would be 10 μM, and the final concentration of DMSO would be 3%. A Biomek™ FXP Laboratory Automation Workstation was used to stamp 20 μL DMSO into all sample wells—minus the control wells—according to the plate map, and then serially dilute 1:3 by mixing and aspirating 10 μL, delivering into the 20 μL of DMSO in the next well, resulting in 10-point serial dilution curves. A Biotek™ Multiflo EL406 Washer Dispenser was used to deliver 80 μL of 1.03× buffer to the compound plate. The plate was mixed 10× by FX, then a final dilution was performed by stamping 18 μL from the compound plate into a 384-well deep-well plate that had also been previously filled with 102 μL 1.03× buffer via the Multiflo. The solution in the deep-well plate was mixed 10× by FX, then sealed with a 384-well microplate foil from Cytiva® (Cytiva® BR100577) and placed on an orbital shaker for 30 minutes at 1000 RPM to ensure complete mixing of the DMSO solution in the buffer. A solvent correction curve was also prepared by making a 4% DMSO solution in 1.03× buffer and diluting in 1.03× buffer such that there were eight solutions of decreasing DMSO concentrations resulting in a high DMSO concentration of 4% and a low concentration of 2% DMSO.
Immobilization running buffer was prepared in a 200-mL volume by diluting 1.03× running buffer prepared above to 1.0×. A Cytiva® Streptavidin chip (Cytiva®, 29104992) was docked into a Biacore™ S200 instrument, and the instrument was then primed three times into the immobilization running buffer. A protein stock of Avi-tagged NRAS G12D C118S was prepared in-house and biotinylated using the Bulk BirA: BirA biotin-protein ligase bulk reaction kit from Avidity (Avidity®, Bulk BirA). Upon completion of the biotinylation reaction, Amicon® ultra 0.5-mL Centrifugal Filters with a MWCO of 3 k Da (Millipore® UFC500396) were used to reduce the free biotin concentration below 0.1 μM in the protein sample over the course of eight desalting cycles, according to the manufacturer's protocol. Resulting protein concentration was not measured directly as an accurate protein concentration is not required for immobilizing protein on the chip surface; however, a theoretical yield of ≤1.5 mg/mL was estimated based off of retained volumes during the desalting process. Reagents for immobilization were prepared as instructed in the Biacore™ 5200 Control Software Immobilization Wizard, including solutions of 1 M NaCl in 50 mM NaOH, and 1 M NaCl in 50 mM NaOH and 50% isopropyl alcohol. […]

Assay [1] deals with THP-1 cells expressing G12D (NRAS G12D). Kind of assay: Inhibition of NRAS G12D-mediated phosphorylation of ERK (AlphaLISA p-ERK1/2) in THP-1 cells. The assay is classed as cell-based. The settings on record: Homo sapiens, THP-1, 2 h, 2 hours incubation, HBSS with 0% or 10% FBS, p-ERK1/2 (Thr202/Tyr204) AlphaLISA, read-out: pERK THP-1 IC50. A digest of the protocol: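 THP-1 cells expressing NRAS G12D, seeded in HBSS with 0% or 10% FBS, were exposed to test compound (1% DMSO final) for 2 h. p-ERK1/2 (Thr202/Tyr204) read by AlphaLISA SureFire Ultra. IC50 from curves normalized to no-inhibitor (100%) and 1 μM trametinib (0%) controls.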

Chain of NRAS G12D C118S (P01111 whole entry G12D/C118S): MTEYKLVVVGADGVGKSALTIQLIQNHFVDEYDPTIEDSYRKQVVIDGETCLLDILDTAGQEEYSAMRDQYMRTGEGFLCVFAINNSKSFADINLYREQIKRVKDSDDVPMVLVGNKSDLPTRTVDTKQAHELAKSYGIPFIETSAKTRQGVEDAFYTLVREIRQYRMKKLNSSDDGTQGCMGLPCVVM

On NRAS G12D C118S, `C#Cc1c(F)ccc2cc(O)cc(-c3ncc4c(N5C[C@@H]6C[C@H](O)[C@H](C5)N6)nn(C)c4c3F)c12` [Example 57, (1S,5S,6S)-3-(6-(8-ethynyl-7-fluoro-3-hydroxynaphthalen-1-yl)-7-fluoro-1-methyl-1H-pyrazolo[4,3-c]pyridin-3-yl)-3,8-diazabicyclo[3.2.1]octan-6-ol] came in with a Kd of 737 nM. The IC50 in assay [1] was 17300 nM.
As for `C#Cc1c(F)ccc2cc(O)cc(-c3nc(CC)c4c(N5C[C@@H]6CC[C@H]5CN6)nn(C5CC5)c4c3F)c12` [Example 90, 4-(3-((1S,4S)-2,5-diazabicyclo[2.2.2]octan-2-yl)-1-cyclopropyl-4-ethyl-7-fluoro-1H-pyrazolo[4,3-c]pyridin-6-yl)-5-ethynyl-6-fluoronaphthalen-2-ol], binding at NRAS G12D C118S was put at a Kd of 107 nM. In addition, the IC50 in assay [1] stood at 888 nM.
Regarding `C#Cc1c(F)ccc2cc(O)cc(-c3ncc4c([C@H]5[C@@H]6CNC[C@@H]65)nn(C5C[C@@H]5C)c4c3F)c12` (stereo partly drawn) [Example 46, 4-(3-((1R,5S,6r)-3-azabicyclo[3.1.0]hexan-6-yl)-7-fluoro-1-((1S,2S)-2-methylcyclopropyl)-1H-pyrazolo[4,3-c]pyridin-6-yl)-5-ethynyl-6-fluoronaphthalen-2-ol], on NRAS G12D C118S, binding was put at a Kd of 60.7 nM. The IC50 in assay [1] was 1940 nM.
Regarding `C#CCn1nc([C@H]2[C@@H]3CNC[C@@H]32)c2cnc(-c3cc(O)cc4ccc(F)c(C#C)c34)c(F)c21` [Example 59, 4-(3-((1R,5S,6r)-3-azabicyclo[3.1.0]hexan-6-yl)-7-fluoro-1-(prop-2-yn-1-yl)-1H-pyrazolo[4,3-c]pyridin-6-yl)-5-ethynyl-6-fluoronaphthalen-2-ol], the Kd at NRAS G12D C118S came to 1110 nM. Further, the IC50 in assay [1] was found to be 3470 nM.
`C#Cc1c(F)ccc2cc(O)cc(-c3ncc4c([C@H]5[C@@H]6CNC[C@@H]65)nn(C)c4c3F)c12` [Example 3, 4-(3-((1R,5S,6r)-3-azabicyclo[3.1.0]hexan-6-yl)-7-fluoro-1-methyl-1H-pyrazolo[4,3-c]pyridin-6-yl)-5-ethynyl-6-fluoronaphthalen-2-ol]: the Kd on NRAS G12D C118S is 85 nM. For the same molecule, the IC50 in assay [1] is 925 nM.
As for `C#Cc1c(F)ccc2cc(O)cc(-c3ccc4c([C@H]5[C@@H]6CNC[C@@H]65)nn(C)c4c3F)c12` [Example 27, 4-(3-((1R,5S,6r)-3-azabicyclo[3.1.0]hexan-6-yl)-7-fluoro-1-methyl-1H-indazol-6-yl)-5-ethynyl-6-fluoronaphthalen-2-ol], on NRAS G12D C118S, binding was characterised by a dissociation constant (Kd) of 3180 nM. In assay [1], the IC50 came to 9560 nM.
The molecule `C#Cc1c(F)ccc2cc(O)cc(-c3nc(C(C)C)c4c([C@H]5[C@@H]6CNC[C@@H]65)nn(C5CC5)c4c3F)c12` [Example 74, 4-(3-((1R,5S,6r)-3-azabicyclo[3.1.0]hexan-6-yl)-1-cyclopropyl-7-fluoro-4-isopropyl-1H-pyrazolo[4,3-c]pyridin-6-yl)-5-ethynyl-6-fluoronaphthalen-2-ol] displayed a Kd at NRAS G12D C118S of 0.141 nM. For the same molecule, the IC50 in assay [1] was 9.56 nM.
As to `C#Cc1c(F)ccc2cc(O)cc(-c3ncc4c([C@H]5[C@@H]6CNC[C@@H]65)c(C#N)n(C)c4c3F)c12` [Example 58, 3-((1R,5S,6s)-3-azabicyclo[3.1.0]hexan-6-yl)-6-(8-ethynyl-7-fluoro-3-hydroxynaphthalen-1-yl)-7-fluoro-1-methyl-1H-pyrrolo[3,2-c]pyridine-2-carbonitrile], at NRAS G12D C118S, the affinity, expressed as Kd, was 300 nM. For the same molecule, the IC50 in assay [1] turned out to be 4800 nM.
The matching figures for `C#Cc1c(F)ccc2cc(O)cc(-c3nc(NC(C)C)c4c([C@H]5[C@@H]6CNC[C@@H]65)nn(C5CC5)c4c3F)c12` [Example 77, 4-(3-((1R,5S,6r)-3-azabicyclo[3.1.0]hexan-6-yl)-1-cyclopropyl-7-fluoro-4-(isopropylamino)-1H-pyrazolo[4,3-c]pyridin-6-yl)-5-ethynyl-6-fluoronaphthalen-2-ol]: 17.9 nM and 258 nM.
The matching figures for `C#Cc1c(F)ccc2cc(N)cc(-c3nc(CC)c4c([C@H]5[C@@H]6CNC[C@@H]65)nn(C5CC5)c4c3F)c12` [Example 88, 4-(3-((1R,5S,6r)-3-azabicyclo[3.1.0]hexan-6-yl)-1-cyclopropyl-4-ethyl-7-fluoro-1H-pyrazolo[4,3-c]pyridin-6-yl)-5-ethynyl-6-fluoronaphthalen-2-amine]: 4.58 nM and 227 nM.
Molecule `C#Cc1c(F)ccc2cc(O)cc(-c3ncc4c([C@H]5[C@@H]6CNC[C@@H]65)c(C)n(C)c4c3F)c12` [Example 21, 4-(3-((1R,5S,6s)-3-azabicyclo[3.1.0]hexan-6-yl)-7-fluoro-1,2-dimethyl-1H-pyrrolo[3,2-c]pyridin-6-yl)-5-ethynyl-6-fluoronaphthalen-2-ol] registered a Kd on NRAS G12D C118S of 1840 nM. Also, the IC50 in assay [1] was 13000 nM.
In the case of `C#Cc1c(F)ccc2cc(O)cc(-c3nc(OC4CCC4)c4c([C@H]5[C@@H]6CNC[C@@H]65)nn(C5CC5)c4c3F)c12` [Example 64, 4-(3-((1R,5S,6r)-3-azabicyclo[3.1.0]hexan-6-yl)-4-cyclobutoxy-1-cyclopropyl-7-fluoro-1H-pyrazolo[4,3-c]pyridin-6-yl)-5-ethynyl-6-fluoronaphthalen-2-ol], the affinity on NRAS G12D C118S, expressed as Kd, was 24.3 nM. Further, the IC50 in assay [1] is 480 nM.
`C#Cc1c(F)ccc2cc(O)cc(-c3nc(NC)c4c([C@H]5[C@@H]6CNC[C@@H]65)nn(C5CC5)c4c3F)c12` [Example 76, 4-(3-((1R,5S,6r)-3-azabicyclo[3.1.0]hexan-6-yl)-1-cyclopropyl-7-fluoro-4-(methylamino)-1H-pyrazolo[4,3-c]pyridin-6-yl)-5-ethynyl-6-fluoronaphthalen-2-ol]: binding at NRAS G12D C118S was put at a Kd of 28.3 nM. Further, the IC50 in assay [1] worked out at 547 nM.
The matching figures for `C#Cc1c(F)ccc2cc(O)cc(-c3nc(OCC)c4c([C@H]5[C@@H]6CNC[C@@H]65)nn(C5CC5)c4c3F)c12` [Example 63, 4-(3-((1R,5S,6r)-3-azabicyclo[3.1.0]hexan-6-yl)-1-cyclopropyl-4-ethoxy-7-fluoro-1H-pyrazolo[4,3-c]pyridin-6-yl)-5-ethynyl-6-fluoronaphthalen-2-ol]: 8.29 nM and 185 nM.
The molecule `C#Cc1c(F)ccc2cc(O)cc(-c3ncc4c(C5[C@H]6CNC[C@@H]56)cn(CCO)c4c3F)c12` (stereo partly drawn) [Example 103, 4-(3-((1R,5S)-3-azabicyclo[3.1.0]hexan-6-yl)-7-fluoro-1-(2-hydroxyethyl)-1H-pyrrolo[3,2-c]pyridin-6-yl)-5-ethynyl-6-fluoronaphthalen-2-ol] displayed a Kd at NRAS G12D C118S of 488 nM. Further, in assay [1], the IC50 is above 50000 nM.
